Values quoted from earlier work in patent publication US6482309B1, “Electrolytic generation of nascent iodine as a method of treatment and for the prevention of infections associated with medical implant devices” (OxiBio, Inc., priority 1999, dated 2002).

Test system: bacteria and viruses

II [free iodine, iodine]
level of free iodine required for efficient microbial killing: ~2 ppm
